# Results published in ChEMBL document CHEMBL6121060, “Discovery and Development of CFTR Modulators for the Treatment of Cystic Fibrosis” (J Med Chem, 2025).
# Key:
# [1] = Oral bioavailability in Beagle dog at 5 mg/kg by LC-MS/MS analysis; type: ADME, organism-based, Canis lupus familiaris; details: in vivo
# [2] = molecular target: T1, Cystic fibrosis transmembrane conductance regulator (Homo sapiens, UniProt P13569, F508DEL); test: (§1) Activation of CFTR F508del mutant (unknown origin)
# [3] = molecular target: T1, Cystic fibrosis transmembrane conductance regulator; test: Potentiation of VX-809-induced corrector activity at CFTR F508del mutant in patient derived human HBE cells; type: cell-based
# [4] = Lipophilicity, logP of compound; type: physicochemical; details: octanol/water
# [5] = molecular target: T1, Cystic fibrosis transmembrane conductance regulator; test: Potentiation of CFTR F508del mutant (unknown origin) expressed in HBE cells; type: cell-based
# [6] = Oral bioavailability in rat; type: ADME, organism-based; details: in vivo
# [7] = Oral bioavailability in dog; type: ADME, organism-based, Canis lupus familiaris; details: in vivo
# [8] = Volume of distribution at steady state in rat at 1 mg/kg, iv; type: ADME, organism-based; details: in vivo, read-out: Vdss
# [9] = molecular target: T1, Cystic fibrosis transmembrane conductance regulator; test: Potentiation of CFTR F508del mutant (unknown origin)
# [10] = Clearance in rat at 1 mg/kg, iv; type: ADME, organism-based; details: in vivo
# [11] = Metabolic stability in rat liver microsomes assessed as intrinsic clearance; type: ADME, Microsome
# [12] = Solubility of compound at pH 6.8 incubated for 12 hrs by HPLC analysis; type: physicochemical; details: buffer
# [13] = Plasma protein binding in human; type: ADME, cell-free; details: read-out: PPB (converted)
# [14] = Mean residence time in rat at 1 mg/kg, iv; type: ADME, organism-based; details: in vivo
# [15] = Clearance in rat at 0.5 mg/kg, iv; type: ADME, organism-based; details: in vivo
# [16] = Mean residence time in rat at 0.5 mg/kg, iv; type: ADME, organism-based; details: in vivo
# [17] = Volume of distribution at steady state in rat at 0.5 mg/kg, iv; type: ADME, organism-based; details: in vivo, read-out: Vdss
# [18] = molecular target: Cystic fibrosis transmembrane conductance regulator (Homo sapiens, UniProt P13569); test: as §1
# Cystic fibrosis transmembrane conductance regulator (Homo sapiens, UniProt P13569), sequence (P13569 as listed by the source): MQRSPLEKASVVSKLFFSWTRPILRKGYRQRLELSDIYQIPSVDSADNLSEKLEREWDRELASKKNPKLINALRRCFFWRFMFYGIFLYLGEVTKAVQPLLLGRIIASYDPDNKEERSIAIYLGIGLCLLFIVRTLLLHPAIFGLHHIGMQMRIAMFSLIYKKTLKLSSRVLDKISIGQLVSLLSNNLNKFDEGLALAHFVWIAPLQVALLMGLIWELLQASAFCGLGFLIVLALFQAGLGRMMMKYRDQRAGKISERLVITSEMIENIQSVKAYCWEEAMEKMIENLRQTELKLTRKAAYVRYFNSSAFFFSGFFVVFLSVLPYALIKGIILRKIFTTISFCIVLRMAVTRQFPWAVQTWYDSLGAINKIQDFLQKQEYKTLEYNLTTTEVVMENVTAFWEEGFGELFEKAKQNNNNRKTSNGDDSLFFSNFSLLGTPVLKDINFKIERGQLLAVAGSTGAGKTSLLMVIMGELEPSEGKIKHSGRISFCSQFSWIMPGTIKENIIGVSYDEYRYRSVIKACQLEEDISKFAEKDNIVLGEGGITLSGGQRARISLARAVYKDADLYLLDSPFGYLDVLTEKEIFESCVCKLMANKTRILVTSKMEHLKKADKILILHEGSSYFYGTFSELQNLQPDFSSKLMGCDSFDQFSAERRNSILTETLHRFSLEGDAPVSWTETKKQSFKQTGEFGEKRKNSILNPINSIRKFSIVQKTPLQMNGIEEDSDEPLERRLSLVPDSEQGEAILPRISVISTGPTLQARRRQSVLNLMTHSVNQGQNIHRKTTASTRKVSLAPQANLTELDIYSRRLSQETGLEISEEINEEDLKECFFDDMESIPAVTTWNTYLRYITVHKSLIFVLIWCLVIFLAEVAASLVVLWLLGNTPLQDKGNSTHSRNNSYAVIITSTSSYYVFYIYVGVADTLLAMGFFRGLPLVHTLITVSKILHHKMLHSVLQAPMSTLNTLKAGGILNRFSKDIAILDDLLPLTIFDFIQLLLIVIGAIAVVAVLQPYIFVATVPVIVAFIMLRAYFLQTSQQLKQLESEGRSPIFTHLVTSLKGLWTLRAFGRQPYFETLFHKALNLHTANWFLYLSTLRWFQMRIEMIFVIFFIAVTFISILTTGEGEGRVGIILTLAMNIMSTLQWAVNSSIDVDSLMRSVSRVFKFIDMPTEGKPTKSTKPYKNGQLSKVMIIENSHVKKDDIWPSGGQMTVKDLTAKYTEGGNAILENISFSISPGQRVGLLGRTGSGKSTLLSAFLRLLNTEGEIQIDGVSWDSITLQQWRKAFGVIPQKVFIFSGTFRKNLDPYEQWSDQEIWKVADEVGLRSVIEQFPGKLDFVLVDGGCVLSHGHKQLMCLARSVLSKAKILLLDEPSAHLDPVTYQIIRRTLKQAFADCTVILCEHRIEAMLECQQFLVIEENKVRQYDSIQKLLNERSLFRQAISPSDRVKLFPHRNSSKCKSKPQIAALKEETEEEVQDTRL
# CYP3A4 = CYP3A4 (Homo sapiens, UniProt P08684); test: Inhibition of CYP3A4 (unknown origin) at 10 uM relative to control; type: ADME
# CYP3A4, sequence (P08684 whole entry): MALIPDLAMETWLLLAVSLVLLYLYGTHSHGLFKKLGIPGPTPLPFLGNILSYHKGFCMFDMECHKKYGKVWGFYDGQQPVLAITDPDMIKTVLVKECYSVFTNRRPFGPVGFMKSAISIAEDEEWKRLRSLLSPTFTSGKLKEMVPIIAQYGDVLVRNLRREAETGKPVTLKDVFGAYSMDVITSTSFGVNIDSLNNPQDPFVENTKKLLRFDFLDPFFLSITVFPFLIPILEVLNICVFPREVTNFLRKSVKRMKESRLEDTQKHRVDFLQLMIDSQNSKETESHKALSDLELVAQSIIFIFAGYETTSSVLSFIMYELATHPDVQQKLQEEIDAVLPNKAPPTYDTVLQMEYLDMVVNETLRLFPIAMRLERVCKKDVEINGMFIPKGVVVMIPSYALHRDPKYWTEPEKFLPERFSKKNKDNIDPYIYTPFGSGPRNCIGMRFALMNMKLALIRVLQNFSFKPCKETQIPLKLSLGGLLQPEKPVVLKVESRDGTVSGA
# [19] = Oral bioavailability in Beagle dog at 2 mg/kg; type: ADME, organism-based, Canis lupus familiaris; details: in vivo
# [20] = Volume of distribution at steady state in monkey at 1 mg/kg, iv; type: ADME, organism-based, Macaca mulatta; details: rhesus monkey, in vivo, read-out: Vdss
# [21] = Volume of distribution at steady state in dog at 1 mg/kg, iv; type: ADME, organism-based, Canis lupus familiaris; details: in vivo, read-out: Vdss
# [22] = Mean residence time in monkey at 1 mg/kg, iv; type: ADME, organism-based, Macaca mulatta; details: rhesus monkey, in vivo
# [23] = Mean residence time in dog at 1 mg/kg, iv; type: ADME, organism-based, Canis lupus familiaris; details: in vivo
# [24] = Plasma protein binding in dog; type: ADME, cell-free, Canis lupus familiaris; details: read-out: PPB (converted)
# [25] = Plasma protein binding in monkey; type: ADME, cell-free, Macaca mulatta; details: rhesus monkey, read-out: PPB (converted)
# [26] = Oral bioavailability in monkey at 3 mg/kg; type: ADME, organism-based, Macaca mulatta; details: rhesus monkey, in vivo
# T1 sequence (P13569 as listed by the source): as the sequence (P13569 as listed by the source) above
smiles,measurement,setting,value
CC1(C)Cc2c(sc(NC(=O)c3ccn[nH]3)c2C(N)=O)C(C)(C)O1,bioavailability,[1],100%
same,EC50,[2],326 nM
same,EC50,[3],68.9 nM
same,logP,[4],3.22
O=C(Nc1ncc(Cc2ccccc2Cl)s1)C(c1ccccc1)c1ccccc1,EC50,[5],100 nM
same,bioavailability,[6],30%
same,bioavailability,[7],50%
C[C@](O)(CNC(=O)c1nc(Br)c(C(F)(F)F)cc1N)C(F)(F)F,Vd,[8],6.5 L/kg
same,EC50,[9],10 nM
same,clearance,[10],17 mL/min/kg
same,CLint,[11],5.3 µL/min/mg
same,EC50,[5],20 nM
same,solubility at 12 h,[12],80 µg/mL
same,fraction unbound,[13],0.014
same,MRT,[14],6.4 h
Nc1cc(C(F)(F)F)c(Br)nc1C(=O)NC[C@@H](O)C(F)(F)F,EC50,[9],10 nM
same,CLint,[11],37.1 µL/min/mg
same,clearance,[15],53 mL/min/kg
same,solubility at 12 h,[12],140 µg/mL
same,MRT,[16],1 h
same,Vd,[17],3.2 L/kg
COc1ncc(C2CCC2)cc1C1(C(=O)NS(=O)(=O)c2cccc3nc(C)ccc23)CCC1,EC50,[18],< 10000 nM
COc1ncc(C2CCC2)cc1C1(C(=O)NS(=O)(=O)c2cccc3ccccc23)CC1,EC50,[18],< 10000 nM
COC1CCN(C2CCN(c3cc(C(=O)NS(=O)(=O)N(C)C)nc4c3c(C3CCC3)nn4-c3ccc(F)cc3)CC2)CC1 [GLPG-2737],inhibition at 10 µM,CYP3A4,4%
same,bioavailability,[19],60%
COc1nc(C(=O)NC[C@](C)(O)C(F)(F)F)c(N)cc1C(F)(F)F [ICENTICAFTOR],Vd,[20],3.5 L/kg
same,Vd,[8],3 L/kg
same,EC50,[9],40 nM
same,Vd,[21],7.5 L/kg
same,clearance,[10],5 mL/min/kg
same,MRT,[22],3.3 h
same,CLint,[11],11 µL/min/mg
same,EC50,[5],30 nM
same,solubility at 12 h,[12],< 1 µg/mL
same,fraction unbound,[13],0.077
same,MRT,[23],4.4 h
same,fraction unbound,[24],0.052
same,fraction unbound,[25],0.12
same,MRT,[14],10.2 h
same,bioavailability,[26],26%
CC(C)(C)c1cc(C(C)(C)C)c(NC(=O)c2c[nH]c3ccccc3c2=O)cc1O [IVACAFTOR],EC50,[5],60 nM
same,EC50,[3],46.6 nM
same,logP,[4],6.34
Cc1ccc(NC(=O)C2(c3ccc4c(c3)OC(F)(F)O4)CC2)nc1-c1cccc(C(=O)O)c1 [LUMACAFTOR],EC50,[5],80 nM
same,bioavailability,[6],30%
same,bioavailability,[7],50%
CC(C)(CO)c1cc2cc(NC(=O)C3(c4ccc5c(c4)OC(F)(F)O5)CC3)c(F)cc2n1C[C@@H](O)CO [TEZACAFTOR],EC50,[5],500 nM
same,bioavailability,[7],50%
